According to patent publication US20260166082A1, “METHODS OF TREATMENT WITH T CELL THERAPY AND IMMUNOMODULATORY AGENT MAINTENANCE THERAPY” (Celgene Corporation, priority 2022, published 2026):

Columns and labels:
[1] = system: patients with multiple myeloma following ASCT; conditions: maintenance with lenalidomide following ASCT; 22.1 months follow up; cited from earlier work
minimal residual disease = assay: Example 1: MRD negativity by next-generation sequencing and EuroFlow; type: in vivo, human; conditions: subjects on lenalidomide maintenance after anti-BCMA CAR-T cells, subsequent analysis
Description: Exploratory endpoints, which included assessment of biomarkers (serum level of soluble BCMA (sBCMA) and inflammatory cytokines) by Luminex assay and minimal residual disease negativity (MRD−) by using aggregation of next-generation sequencing and 8-color flow cytometry (EuroFlow; sensitivity <10^−5 nucleated cells) data with interpolation to reduce missing/indeterminate data points. sBCMA levels were evaluated at leukapheresis; baseline; days 1, 4, and 8; and until disease progression. Plasma levels of immune-related inflammatory cytokines (interferon-γ (IFNγ), interleukin-6 (IL-6), interleukin-8 (IL-8) and interleukin-10 (IL-10)) were evaluated at leukapheresis; baseline; days 1-8, 10, 12, 15 18 and 22; and months 2 and 4. Efficacy and safety were analyzed in all subjects who received anti-BCMA CAR-T cells. PK, sBCMA, and MRD-were analyzed in evaluable subjects.

Compound: Nc1cccc2c1CN(C1CCC(=O)NC1=O)C2=O (centres unmarked) [lenalidomide, 3-(4-amino-1-oxo-1,3-dihydro-2H-isoindol-2-yl) piperidine-2,6-dione]
- complete response rate [1]: 60.9%
- patients achieving minimal residual disease negativity [1]: 20.4
- MRD-negativity maintained at 36 months (minimal residual disease; 2/3 evaluable): 66.7%
- MRD-negativity maintained at 12 months (minimal residual disease; 4/6 evaluable): 66.7%
- MRD-negativity maintained at 24 months (minimal residual disease; 4/6 evaluable): 66.7%
